According to publication PMC9503446, “Effects of Medicinal Leech-Related Cationic Antimicrobial Peptides on Human Blood Cells and Plasma” (Molecules, 2022):
No end group written: not given here.

What was measured:
Escherichia coli = experiment: MIC determination, microtiter dilution; format: cell-based, Escherichia coli str. K12 substr. MG1655; settings: present study, two-fold dilution series in MHB, 37 °C, 24 h, turbidity at 560 nm, mean of three independent experiments
Method: CAMPs were designed and synthesized as described previously in our works. The minimum inhibitory concentrations (MICs) for the Gram-negative bacterium Escherichia coli and Gram-positive bacterium Bacillus subtilis were determined earlier or in the present study. The MIC values for Escherichia coli were the same or higher than those for Bacillus subtilis. The CAMP concentrations tested were in the range up to 100 μM.
Escherichia coli str. K12 substr. MG1655 (Invitrogen) and Bacilus subtilis str. 168HT (Vavilov Institute of General Genetics, Russian Academy of Sciences, Moscow, Russia) were grown in Luria–Bertani broth (Difco, BD Difco, Thermo Fisher Scientific Inc., Waltham, MA, USA) according to standard procedure. Bacteria were stored with 10% glycerol at −70 °C until use. MIC determination was carried out by growing bacteria in 96-well microtitration plates in the presence of a two-fold dilution series of the peptide using the standard microtiter dilution method. Briefly, single bacterial clones were cultured overnight in Mueller–Hinton broth (MHB, BD Difco, Thermo Fisher Scientific Inc., Waltham, MA, USA) at 150 rpm and 37 °C, then transferred to fresh MHB and cultured until the logarithmic growth phase. […] After incubation at 37 °C for 24 h, the antimicrobial susceptibility was estimated by turbidity measurement at 560 nm using a microplate reader. […]

erythrocytes [1] = experiment: Hemolysis assay, erythrocytes in PBS; format: cell-based, human; settings: 0.5 h, 37 °C
Method: Erythrocytes were incubated (0.5 h, 37 °C) with different CAMP concentrations ranging from 6.25 μM to 100 μM. Incubation conditions chosen were similar to those used in other studies. Following incubation, the samples were centrifuged, and the supernatant analyzed spectrophotometrically for hemoglobin at 414 nm and 540 nm. Absorption at 414 nm provides higher sensitivity. The results were the same no matter which wavelength was used to monitor for hemoglobin.
(§1) The hemolytic activity of CAMPs was determined using a hemolysis assay measuring hemoglobin released from damaged cells. A working erythrocyte suspension (in PBS) was prepared so that its ten-fold dilution gave an optical density of 0.4 at 800 nm. This working suspension corresponded to a cell density of about 30 × 10^6 cells/mL. Aliquots of 125 μL of CAMP solutions of different concentrations were added to Eppendorf tubes. […] The supernatant (200 μL) was transferred to the wells of a microplate, and the absorbance of hemoglobin was measured by a Thermo Electron Multiskan Ascent microplate reader (Thermo Fisher Scientific Inc., Waltham, MA, USA), with a test wavelength of 414 nm as well as 540 nm and a background wavelength of 690 nm. The hemolysis percentage was calculated using the following equation: Hemolysis (%) = {(sample absorbance − negative control)/(positive control − negative control)} × 100.

erythrocytes [2] = experiment: Hemolysis assay in the presence of human serum albumin (HSA); format: cell-based; settings: 50 μM peptide, 50 μM HSA, 0.5 h, 37 °C
Method: Given that the normal HSA concentration in plasma is 500–700 μM and the dilution of plasma in the final, cell-containing samples was 1:10, a final HSA concentration of 50 μM was applied. Then, 100 μM CAMP working solutions were made up in PBS or PBS containing 100 μM or 70 μM HSA to give final concentrations of 50 μM CAMP and 50 μM or 35 μM HSA.
as §1

[3] = preparation of 2 mM stock solution; dissolved with PBS containing 4% DMSO
Method: First, 2 mM stock solutions of CAMPs were prepared in PBS, except for the CAMPs pept_1 and pept_2. […] Its 2 mM solution was made up using PBS containing 4% DMSO (PBS/DMSO), which gave a final DMSO concentration not higher than 0.2% in any of experiments. […] Therefore, negative controls containing relevant concentrations of DMSO were run for pept_1 and pept_2, and DMSO contribution was eliminated by subtracting the measured value in the negative control samples from that in the test samples.

Row | Substance | MIC (E. coli) (Escherichia coli) [µM] | Hemolysis (erythrocytes [1]; 100 μM peptide in PBS, no plasma, Triton X-100 = 100%) | Inhibition of CAMP-induced hemolysis by HSA (erythrocytes [2]) | EC50 (erythrocytes [1]; hemolysis assay, rough estimate, read-out: Concentration at which 50% lysis was achieved, erythrocytes) [µM] | Solubility in PBS [3]
1 | FRIMRILRVLK-NH2 [pept_2] | 10 | 10–15% |  |  | 
2 | FRIMRILRVLKL-NH2 [pept_1] |  |  | nearly completely | 65 | poorly soluble in PBS
